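Dose response: 5 concentrations. Exposure: 48 h. Format: 96-well plates. Endpoint: linear interpolation; highest concentration if not reached. Here, GI50 denotes the concentration required for 50% inhibition of growth. TGI: total growth inhibition.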
Legend:
Experiment in all cases: growth of human tumour cells (NCI), 48 h
CCRF-CEM leukemia = test system: CCRF-CEM leukemia
T-47D breast = test system: T-47D breast
SF-539 CNS = test system: SF-539 CNS
LOX IMVI melanoma = test system: LOX IMVI melanoma
PC-3 prostate = test system: PC-3 prostate
SK-MEL-28 melanoma = test system: SK-MEL-28 melanoma
A549 NSCLC = test system: A549 NSCLC
HS 578T breast = test system: HS 578T breast
UACC-62 melanoma = test system: UACC-62 melanoma
SK-MEL-5 melanoma = test system: SK-MEL-5 melanoma
MDA-MB-468 breast = test system: MDA-MB-468 breast
COLO 205 colon = test system: COLO 205 colon
SN12C renal = test system: SN12C renal
OVCAR-3 ovarian = test system: OVCAR-3 ovarian
HCT-15 colon = test system: HCT-15 colon
HCT-116 colon = test system: HCT-116 colon
A498 renal = test system: A498 renal
NCI-H460 lung = test system: NCI-H460 lung
SNB-19 CNS = test system: SNB-19 CNS
MALME-3M melanoma = test system: MALME-3M melanoma
SK-OV-3 ovarian = test system: SK-OV-3 ovarian
K-562 leukemia = test system: K-562 leukemia
HOP-62 NSCLC = test system: HOP-62 NSCLC
HOP-92 NSCLC = test system: HOP-92 NSCLC
NCI-H23 lung = test system: NCI-H23 lung
MDA-MB-435 = test system: MDA-MB-435
EKVX NSCLC = test system: EKVX NSCLC
UACC-257 melanoma = test system: UACC-257 melanoma
RPMI-8226 leukemia = test system: RPMI-8226 leukemia
U251 CNS = test system: U251 CNS
MOLT-4 leukemia = test system: MOLT-4 leukemia
MCF7 breast = test system: MCF7 breast
SK-MEL-2 melanoma = test system: SK-MEL-2 melanoma
DU-145 prostate = test system: DU-145 prostate
MDA-MB-231 breast = test system: MDA-MB-231 breast
786-0 renal = test system: 786-0 renal
SF-268 CNS = test system: SF-268 CNS
IGROV1 ovarian = test system: IGROV1 ovarian
SNB-75 CNS = test system: SNB-75 CNS
OVCAR-4 ovarian = test system: OVCAR-4 ovarian
SF-295 CNS = test system: SF-295 CNS
TK-10 renal = test system: TK-10 renal
OVCAR-5 ovarian = test system: OVCAR-5 ovarian
KM12 colon = test system: KM12 colon
NCI/ADR-RES ovarian = test system: NCI/ADR-RES ovarian
SW-620 colon = test system: SW-620 colon
UO-31 renal = test system: UO-31 renal
ACHN renal = test system: ACHN renal
CAKI-1 renal = test system: CAKI-1 renal
NCI-H226 lung = test system: NCI-H226 lung
OVCAR-8 ovarian = test system: OVCAR-8 ovarian
RXF 393 renal = test system: RXF 393 renal
M14 melanoma = test system: M14 melanoma
HL-60(TB) leukemia = test system: HL-60(TB) leukemia
BT-549 breast = test system: BT-549 breast
HCC-2998 colon = test system: HCC-2998 colon
NCI-H522 lung = test system: NCI-H522 lung

Cc1occc1C(=O)NN1C(=O)/C(=C/C=C/c2ccc([N+](=O)[O-])o2)SC1=S
GI50 (CCRF-CEM leukemia): 1.41 µM | TGI (CCRF-CEM leukemia): 8.47 µM | GI50 (T-47D breast): 2.17 µM | TGI (T-47D breast): 5.57 µM | GI50 (SF-539 CNS): 1.72 µM | TGI (SF-539 CNS): 3.3 µM | GI50 (LOX IMVI melanoma): 1.26 µM | TGI (LOX IMVI melanoma): 2.55 µM | GI50 (PC-3 prostate): 2.79 µM | TGI (PC-3 prostate): 10.2 µM | GI50 (SK-MEL-28 melanoma): 1.85 µM | TGI (SK-MEL-28 melanoma): 3.63 µM | GI50 (A549 NSCLC): 4.82 µM | TGI (A549 NSCLC): 21.1 µM | GI50 (HS 578T breast): 2.44 µM | TGI (HS 578T breast): 7.46 µM | GI50 (UACC-62 melanoma): 1.36 µM | TGI (UACC-62 melanoma): 2.77 µM | GI50 (SK-MEL-5 melanoma): 1.64 µM | TGI (SK-MEL-5 melanoma): 3.13 µM | GI50 (MDA-MB-468 breast): 1.62 µM | TGI (MDA-MB-468 breast): 3.27 µM | GI50 (COLO 205 colon): 1.62 µM | TGI (COLO 205 colon): 3.23 µM | GI50 (SN12C renal): 1.65 µM | TGI (SN12C renal): 3.96 µM | GI50 (OVCAR-3 ovarian): 1.59 µM | TGI (OVCAR-3 ovarian): 3.07 µM | GI50 (HCT-15 colon): 0.645 µM | TGI (HCT-15 colon): 2.24 µM | GI50 (HCT-116 colon): 1.06 µM | TGI (HCT-116 colon): 2.54 µM | GI50 (A498 renal): 19.4 µM | TGI (A498 renal): 33.6 µM | GI50 (NCI-H460 lung): 1.79 µM | TGI (NCI-H460 lung): 3.66 µM | GI50 (SNB-19 CNS): 5.47 µM | TGI (SNB-19 CNS): 18 µM | GI50 (MALME-3M melanoma): 1.5 µM | TGI (MALME-3M melanoma): 3.23 µM | GI50 (SK-OV-3 ovarian): 5.82 µM | TGI (SK-OV-3 ovarian): 18.7 µM | GI50 (K-562 leukemia): 0.586 µM | TGI (K-562 leukemia): 7.28 µM | GI50 (HOP-62 NSCLC): 3.37 µM | TGI (HOP-62 NSCLC): 11.7 µM | GI50 (HOP-92 NSCLC): 2.56 µM | TGI (HOP-92 NSCLC): 5.59 µM | GI50 (NCI-H23 lung): 1.78 µM | TGI (NCI-H23 lung): 3.6 µM | GI50 (MDA-MB-435): 1.93 µM | TGI (MDA-MB-435): 4.26 µM | GI50 (EKVX NSCLC): 1.83 µM | TGI (EKVX NSCLC): 4 µM | GI50 (UACC-257 melanoma): 2.05 µM | TGI (UACC-257 melanoma): 5.1 µM | GI50 (RPMI-8226 leukemia): 1.67 µM | TGI (RPMI-8226 leukemia): 7.51 µM | GI50 (U251 CNS): 1.89 µM | TGI (U251 CNS): 4.62 µM | GI50 (MOLT-4 leukemia): 2.13 µM | TGI (MOLT-4 leukemia): 8.32 µM | GI50 (MCF7 breast): 1.5 µM | TGI (MCF7 breast): 5 µM | GI50 (SK-MEL-2 melanoma): 1.73 µM | TGI (SK-MEL-2 melanoma): 3.56 µM | GI50 (DU-145 prostate): 3.11 µM | TGI (DU-145 prostate): 10.1 µM | GI50 (MDA-MB-231 breast): 1.51 µM | TGI (MDA-MB-231 breast): 2.97 µM | GI50 (786-0 renal): 2.01 µM | TGI (786-0 renal): 4.19 µM | GI50 (SF-268 CNS): 2.49 µM | TGI (SF-268 CNS): 6.95 µM | GI50 (IGROV1 ovarian): 1.85 µM | TGI (IGROV1 ovarian): 3.56 µM | GI50 (SNB-75 CNS): 1.66 µM | TGI (SNB-75 CNS): 7.48 µM | GI50 (OVCAR-4 ovarian): 2.76 µM | TGI (OVCAR-4 ovarian): 10.1 µM | GI50 (SF-295 CNS): 6.19 µM | TGI (SF-295 CNS): 18.8 µM | GI50 (TK-10 renal): 3.47 µM | TGI (TK-10 renal): 9.99 µM | GI50 (OVCAR-5 ovarian): 1.86 µM | TGI (OVCAR-5 ovarian): 3.68 µM | GI50 (KM12 colon): 2.22 µM | TGI (KM12 colon): 6.21 µM | GI50 (NCI/ADR-RES ovarian): 2.55 µM | TGI (NCI/ADR-RES ovarian): 7.46 µM | GI50 (SW-620 colon): 1.11 µM | TGI (SW-620 colon): 2.65 µM | GI50 (UO-31 renal): 1.51 µM | TGI (UO-31 renal): 2.96 µM | GI50 (ACHN renal): 1.73 µM | TGI (ACHN renal): 3.23 µM | GI50 (CAKI-1 renal): 1.82 µM | TGI (CAKI-1 renal): 4.01 µM | GI50 (NCI-H226 lung): 2.02 µM | TGI (NCI-H226 lung): 5.09 µM | GI50 (OVCAR-8 ovarian): 2.5 µM | TGI (OVCAR-8 ovarian): 10.9 µM | GI50 (RXF 393 renal): 1.71 µM | TGI (RXF 393 renal): 3.2 µM | GI50 (M14 melanoma): 1.51 µM | TGI (M14 melanoma): 2.93 µM | GI50 (HL-60(TB) leukemia): 2.64 µM | TGI (HL-60(TB) leukemia): 11.6 µM | GI50 (BT-549 breast): 1.77 µM | TGI (BT-549 breast): 3.29 µM | GI50 (HCC-2998 colon): 1.89 µM | TGI (HCC-2998 colon): 3.69 µM | GI50 (NCI-H522 lung): 1.65 µM | TGI (NCI-H522 lung): 3.21 µM
